The source made the active and inactive calls.
Experiments:
cells [1] = conditions: HEK293
[2] = HepG2 cell cytotoxicity, dose response, cytotoxicity control, ATP luminescence, cherry-pick, set 6 (AID 1053125); format: functional, cell-based
cells [3] = conditions: A549
[4] = T. cruzi growth inhibition in host cells, dose response, cell-based, plate reader, dry powder, set 2 (AID 652275); format: functional
[5] = HeLa cell cytotoxicity, dose response, cytotoxicity control, CellTiter-Glo luminescence, dry powder, set 2 (AID 720593); format: functional, cell-based
[6] = cytotoxicity in HeLa cells, dose response, cytotoxicity control, cell-based, plate reader, dry powder (AID 651946); format: functional
[7] = target: T1, RNA-editing ligase 1, mitochondrial (Trypanosoma brucei brucei, UniProt P86926); assay: TbREL1 ligase inhibitors, dose response, biochemical, fluorescence, Trypanosoma brucei (AID 1117295); format: functional
T1 sequence (P86926 whole entry): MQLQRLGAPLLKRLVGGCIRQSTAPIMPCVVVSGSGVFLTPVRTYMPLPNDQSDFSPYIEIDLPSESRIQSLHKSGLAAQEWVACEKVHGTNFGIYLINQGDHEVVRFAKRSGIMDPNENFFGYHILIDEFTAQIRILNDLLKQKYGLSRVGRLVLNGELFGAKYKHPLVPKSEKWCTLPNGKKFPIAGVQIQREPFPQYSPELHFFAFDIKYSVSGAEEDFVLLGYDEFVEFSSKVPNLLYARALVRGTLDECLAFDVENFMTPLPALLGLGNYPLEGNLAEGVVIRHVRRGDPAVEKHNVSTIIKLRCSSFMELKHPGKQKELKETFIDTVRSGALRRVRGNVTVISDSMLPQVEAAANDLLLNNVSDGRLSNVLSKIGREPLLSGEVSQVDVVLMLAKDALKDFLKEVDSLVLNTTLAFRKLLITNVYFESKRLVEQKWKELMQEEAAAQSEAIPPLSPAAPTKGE

[8] = target: G-protein coupled receptor 55 (Homo sapiens, UniProt Q9Y2T6); assay: GPR55 agonists via beta-arrestin recruitment, primary screen, imaging, U2OS cells, beta-arrestin-GFP redistribution (AID 1961); format: functional
[9] = miR-122 activators in hepatoma reporter cells, dose response, cell-based, Huh7 psiCHECK-miR122, Renilla luciferase, cherry-picked (AID 651956); format: functional;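 also: huh7 hepatoma cells stably carrying a psiCHECK-2 miR-122 sensor plasmid; renilla luciferase signal reporting endogenous miR-122 activity after 48 h compound exposure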
[10] = target: T2, Zinc finger protein mex-5 (Caenorhabditis elegans, UniProt Q9XUB2); assay: MEX-5/TCR-2 RNA interaction inhibitors, dose response, biochemical, C. elegans, fluorescence polarization (AID 1960)
T2 sequence (Q9XUB2 whole entry): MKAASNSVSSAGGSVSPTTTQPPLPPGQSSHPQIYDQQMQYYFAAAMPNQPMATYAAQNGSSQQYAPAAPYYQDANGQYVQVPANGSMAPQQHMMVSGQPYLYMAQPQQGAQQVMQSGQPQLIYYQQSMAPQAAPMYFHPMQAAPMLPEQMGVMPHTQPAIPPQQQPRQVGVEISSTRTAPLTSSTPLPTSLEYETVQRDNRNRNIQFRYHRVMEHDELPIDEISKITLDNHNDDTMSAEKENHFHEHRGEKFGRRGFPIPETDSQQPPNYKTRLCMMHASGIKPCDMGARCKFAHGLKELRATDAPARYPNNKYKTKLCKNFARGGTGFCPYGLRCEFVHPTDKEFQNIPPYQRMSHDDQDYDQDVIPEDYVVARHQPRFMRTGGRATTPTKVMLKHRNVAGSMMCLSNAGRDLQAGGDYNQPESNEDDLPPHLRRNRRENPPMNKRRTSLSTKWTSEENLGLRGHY

[11] = HEK293T cytotoxicity, dose response, cytotoxicity control for miR-122 modulator project, cell-based, activator set, cherry-pick (AID 720690); format: functional;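 also: HEK293T human cells scored for general mammalian cytotoxicity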
[12] = HEK293T cytotoxicity, dose response, cytotoxicity control for miR-122 modulator project, cell-based, inhibitor set, cherry-pick, set 2 (AID 720697); format: functional
[13] = target: T3, Heat shock factor protein 1 (Mus musculus, UniProt P38532); assay: inhibition of MG132-induced HSE-luciferase signal, confirmation, cell-based, NIH3T3, luminescence, dose retest (AID 2382); format: functional;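 also: NIH3T3 fibroblasts with HSF1-driven luciferase reporter stressed by proteasome inhibitor MG132; luminescence from HSF1-driven luciferase expression after 8 hours of MG132 stress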
T3 sequence (P38532 whole entry): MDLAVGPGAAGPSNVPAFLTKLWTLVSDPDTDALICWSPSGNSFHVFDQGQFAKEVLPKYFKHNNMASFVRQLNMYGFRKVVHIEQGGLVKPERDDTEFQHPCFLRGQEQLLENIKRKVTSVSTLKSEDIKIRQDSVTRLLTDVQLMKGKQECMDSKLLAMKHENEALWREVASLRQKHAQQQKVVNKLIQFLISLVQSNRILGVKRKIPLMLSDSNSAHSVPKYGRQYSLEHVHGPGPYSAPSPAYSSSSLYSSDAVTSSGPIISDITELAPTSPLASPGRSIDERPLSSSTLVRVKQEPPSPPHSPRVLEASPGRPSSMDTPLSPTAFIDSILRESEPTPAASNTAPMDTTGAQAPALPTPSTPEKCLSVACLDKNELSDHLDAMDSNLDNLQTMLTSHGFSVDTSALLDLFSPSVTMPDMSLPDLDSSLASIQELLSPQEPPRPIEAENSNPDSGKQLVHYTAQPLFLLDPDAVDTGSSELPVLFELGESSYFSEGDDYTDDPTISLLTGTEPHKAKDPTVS

[14] = target: T4, RNA-binding protein pos-1 (Caenorhabditis elegans, UniProt G5EF15); assay: inhibitors of POS-1/mex-3 RNA binding, dose response, biochemical, fluorescence polarization (AID 1964);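 also: purified POS-1 fused to maltose binding protein made in E. coli; potency of compounds blocking POS-1 binding to fluorescent RNA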
T4 sequence (G5EF15 whole entry): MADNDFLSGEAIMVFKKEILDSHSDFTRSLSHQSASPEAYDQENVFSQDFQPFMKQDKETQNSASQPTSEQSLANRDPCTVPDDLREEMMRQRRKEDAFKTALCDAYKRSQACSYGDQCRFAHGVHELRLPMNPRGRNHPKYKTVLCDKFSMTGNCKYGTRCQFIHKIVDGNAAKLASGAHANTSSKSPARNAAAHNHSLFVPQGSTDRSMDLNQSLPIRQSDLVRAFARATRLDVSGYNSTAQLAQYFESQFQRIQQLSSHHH

[15] = Luminescence Cell-Based Dose Retest to Confirm Inhibitors of Cancer Stem Cells. [Related pubchem assays (depositor defined):AID2717, AID2721]; format: functional; conditions: Homo sapiens
[16] = target: T5, Methionyl-tRNA synthetase, putative (Trypanosoma brucei brucei, UniProt Q38C91); format: functional, Trypanosoma brucei brucei strain 927/4 GUTat10.1
T5 sequence (Q38C91 whole entry): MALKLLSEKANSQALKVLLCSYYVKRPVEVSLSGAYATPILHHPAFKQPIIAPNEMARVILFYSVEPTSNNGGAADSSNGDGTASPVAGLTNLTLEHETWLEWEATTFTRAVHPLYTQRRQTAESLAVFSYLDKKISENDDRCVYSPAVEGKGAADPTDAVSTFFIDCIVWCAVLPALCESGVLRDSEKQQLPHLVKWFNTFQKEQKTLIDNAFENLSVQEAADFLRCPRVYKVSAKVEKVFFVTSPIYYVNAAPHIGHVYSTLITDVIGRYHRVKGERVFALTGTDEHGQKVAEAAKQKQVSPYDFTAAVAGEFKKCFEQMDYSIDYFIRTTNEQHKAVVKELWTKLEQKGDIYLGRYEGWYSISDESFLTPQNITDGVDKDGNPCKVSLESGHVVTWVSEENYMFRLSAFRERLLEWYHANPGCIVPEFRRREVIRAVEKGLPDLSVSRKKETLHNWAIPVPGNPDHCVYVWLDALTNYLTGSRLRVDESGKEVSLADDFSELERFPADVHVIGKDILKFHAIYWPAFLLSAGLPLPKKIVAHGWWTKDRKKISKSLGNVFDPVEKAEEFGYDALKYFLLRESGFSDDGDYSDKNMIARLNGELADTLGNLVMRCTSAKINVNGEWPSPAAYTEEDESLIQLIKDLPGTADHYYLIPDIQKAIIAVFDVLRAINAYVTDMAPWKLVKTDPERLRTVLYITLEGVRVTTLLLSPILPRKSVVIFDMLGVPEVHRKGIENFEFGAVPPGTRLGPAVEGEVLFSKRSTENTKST

[17] = Counterscreen for inhibitors of Trypanosoma brucei methionyl tRNA synthetase (MetRS): Luminescence-based cell-based high throughput dose response assay to identify compounds that are cytotoxic to Jurkat human T lymphocyte cells.; format: functional
[18] = target: T5, Methionyl-tRNA synthetase, putative; format: functional, Trypanosoma brucei brucei strain 927/4 GUTat10.1; remark: listed apart in the source

Chain of G-protein coupled receptor 55 (Q9Y2T6 whole entry): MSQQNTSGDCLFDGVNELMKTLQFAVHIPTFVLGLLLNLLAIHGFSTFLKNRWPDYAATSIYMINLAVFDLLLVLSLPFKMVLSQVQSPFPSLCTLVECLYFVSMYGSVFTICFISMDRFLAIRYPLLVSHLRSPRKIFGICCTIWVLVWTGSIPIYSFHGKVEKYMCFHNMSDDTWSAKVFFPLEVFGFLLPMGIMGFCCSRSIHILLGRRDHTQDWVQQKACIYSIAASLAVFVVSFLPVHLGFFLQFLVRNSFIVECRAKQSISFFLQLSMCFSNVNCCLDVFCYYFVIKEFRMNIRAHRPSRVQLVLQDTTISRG

N#CC1=C(N)Oc2cc(N)ccc2C1c1ccc(F)cc1F (stereo not drawn)
AC50 (cells [1]): > 52 µM (inactive)
AC50 [2]: 45.3 µM (active)
AC50 (cells [3]): 31.8 µM (active)

COc1ccc(C#Cc2cccc(-c3nc(C(=O)NCc4ccc5c(c4)OCO5)cc4c3[C@H](CCO)N([S+]([O-])C(C)(C)C)C4)c2)cc1OC (stereo partly drawn)
AC50 [4]: 0.844 µM (active)

O=C(Nc1nc(-c2ccccn2)cs1)c1ccc(S(=O)(=O)N2CCOCC2)cc1
AC50 [5]: 41.1 µM (active)

COCCOCCSc1nnc(-c2ccccc2)o1
AC50 [6]: > 52 µM (inactive)

COc1cc2c(cc1OC)C(c1ccc(-c3ccc(Cl)c(Cl)c3)o1)=NCC2
IC50 [7]: 35.8 µM (inactive)
EC50 [8]: > 32 µM (inactive)
AC50 [9]: 25.7 µM (active)
EC50 [10]: > 300 µM (not active)
AC50 [11]: 9.82 µM (active)
AC50 [12]: 8.91 µM (active)
EC50 [13]: > 195 µM (not active)
EC50 [14]: > 300 µM (inconclusive)
AC50 [15]: 4.34 µM (active)

COC(=O)c1sc(-c2ccc(Cl)cc2)cc1NC(=O)COCC(=O)O
IC50 [16]: 18.7 µM (inactive)
IC50 [17]: 83.2 µM (inactive)
IC50 [18]: 13.8 µM (inactive)

Source: ChEMBL document CHEMBL1201862, “PubChem BioAssay data set” (2004)
